Assay results from US7282503B2 (priority 2002, dated 2007).
Where two headings read alike, the source gives them in different places.

Experiments:
Plasmopara viticola = test: Activity against peronospora of vines caused by Plasmopara viticola (protective spray, potted vines); type: in vivo, Plasmopara viticola on vines cultivar Müller-Thurgau; conditions: individual active compound, control 88% infection
Protocol: The active compounds, separately or together, were prepared as a stock solution with 0.25% by weight of active compound in acetone or DMSO. 1% by weight of the emulsifier Uniperol® EL (wetting agent having emulsifying and dispersing action based on ethoxylated alkylphenols) was added to this solution, and the solution was diluted with water to the desired concentration.
Evaluation is carried out by determining the infected leaf areas as a percentage. These percentages are converted into efficacies. The efficacy (W) is calculated as follows using Abbot's formula: W=(1−α/β)·100 α corresponds to the fungal infection of the treated plants in % and β corresponds to the fungal infection of the untreated (control) plants in % An efficacy of 0 means that the infection level of the treated plants corresponds to that of the untreated control plants; an efficacy of 100 means that the treated plants were not infected. The expected efficacies of the mixtures of the active compounds are determined using Colby's formula [R. S. Colby, Weeds 15, 20-22 (1967)] and compared with the observed efficacies. Colby's formula: E=x+y−x·y/100 […]
E expected efficacy, expressed as a % of the untreated control, when using the mixture of the active compounds A and B at the concentrations a and b x efficacy, expressed as a % of the untreated control, when using active compound A at a concentration a y efficacy, expressed as a % of the untreated control, when using active compound B at a concentration b Leaves of potted vines of the cultivar “Müller-Thurgau” were sprayed to runoff point with an aqueous suspension having the concentration of active compounds stated below. The next day, the undersides of the leaves were inoculated with an aqueous zoospore suspension of Plasmopara viticola. The vines were then initially placed in a water-vapor-saturated chamber at 24° C. for 48 hours and then in a greenhouse at 20-30° C. for 5 days. After this period of time, the plants were again placed in a moist chamber for 16 hours to promote sporangiophore eruption. The extent to which the infection had developed on the undersides of the leaves was then determined visually.

Phytophthora infestans = type: in vivo; conditions: individual active compound, control 90% infection

Row | SMILES | Efficacy in % of the untreated control (Plasmopara viticola; 3.75 ppm in spray liquor) [%] | Efficacy in % of the untreated control (Plasmopara viticola; 7.5 ppm in spray liquor) [%] | Efficacy in % of the untreated control (Phytophthora infestans; 3.75 ppm in spray liquid) [%] | Efficacy in % of the untreated control (Phytophthora infestans; 7.5 ppm in spray liquid) [%] | Efficacy in % of the untreated control (Phytophthora infestans; 15 ppm in spray liquid) [%] | Efficacy in % of the untreated control (Phytophthora infestans; 30 ppm in spray liquid) [%] | Efficacy in % of the untreated control (Plasmopara viticola; 3 ppm in spray liquor) [%] | Efficacy in % of the untreated control (Plasmopara viticola; 6 ppm in spray liquor) [%] | Efficacy in % of the untreated control (Phytophthora infestans; 0.75 ppm in spray liquid) [%] | Efficacy in % of the untreated control (Phytophthora infestans; 1.5 ppm in spray liquid) [%] | Efficacy in % of the untreated control (Phytophthora infestans; 3 ppm in spray liquid) [%] | Efficacy in % of the untreated control (Phytophthora infestans; 6 ppm in spray liquid) [%]
1 | CC1CCN(c2c(-c3c(F)cc(F)cc3F)c(Cl)nc3ncnn23)CC1 [I, 5-chloro-7-(4-methyl-pipiridin-1-yl)-6-(2,4,6-trifluorophenyl)-[1,2,4]triazolo[1,5-a]pyrimidine] | 9 | 32 | 0 | 0 | 0 | 33 |  |  |  |  |  | 
2 | Cc1ccc(-c2c(Cl)nc(C#N)n2S(=O)(=O)N(C)C)cc1 [IIa, cyazofamid] |  |  |  |  |  |  | 72 | 83 | 56 | 67 | 78 | 89
